Source: paper PMC6150381, “Design, Synthesis, and Biological Evaluation of N,N-Disubstituted-4-arylthiazole-2-methylamine Derivatives as Cholesteryl Ester Transfer Inhibitors” (Molecules : A Journal of Synthetic Chemistry and Natural …, 2017)

Legend:
recombinant CETP = target: T1, recombinant CETP (Homo sapiens, UniProt P11597); test: In vitro CETP inhibitory assay (BODIPY-CE fluorescence assay, CETP RP Activity Assay Kit); format: biochemical; conditions: for IC50: CETP inhibition, eight-point titration, each concentration tested three times
T1 construct: purchased Roar, New York, NY, USA RB-RPAK
T1 sequence (P11597 18-493): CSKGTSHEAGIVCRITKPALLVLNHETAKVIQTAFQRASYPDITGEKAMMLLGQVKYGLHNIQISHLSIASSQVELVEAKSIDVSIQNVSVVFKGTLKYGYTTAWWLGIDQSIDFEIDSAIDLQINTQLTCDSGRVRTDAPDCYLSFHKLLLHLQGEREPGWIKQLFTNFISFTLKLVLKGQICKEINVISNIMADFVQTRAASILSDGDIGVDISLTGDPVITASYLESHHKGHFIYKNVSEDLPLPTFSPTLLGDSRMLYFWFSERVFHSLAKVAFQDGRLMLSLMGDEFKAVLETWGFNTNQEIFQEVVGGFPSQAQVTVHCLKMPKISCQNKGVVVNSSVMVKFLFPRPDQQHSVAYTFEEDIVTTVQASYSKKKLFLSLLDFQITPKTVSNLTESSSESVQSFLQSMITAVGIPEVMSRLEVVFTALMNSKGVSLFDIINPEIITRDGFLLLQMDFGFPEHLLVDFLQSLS
Description: The IC50 was determined from a curve fit of the data with each concentration tested three times.

| IC50 (recombinant CETP) [µM] | melting point [°C] | decrease of activity on replacing the nitro group at the 4-position of ring B (recombinant CETP; compared with the 4-nitro compound (30)) [fold] | SMILES |
| --- | --- | --- | --- |
| 25.7 ± 0.41 | 81 to 82.4 | – | Fc1ccc(CN(Cc2ncc(-c3ccccc3)o2)c2cccc(Oc3ccccc3)c2)cc1 [Compound 17a, N-(4-Fluorobenzyl)-3-phenoxy-N-((5-phenyloxazol-2-yl)methyl)aniline] |
| 10.6 ± 0.32 | 90.5 to 92.5 | – | Fc1ccc(CN(Cc2ncc(-c3ccccc3)s2)c2cccc(Oc3ccccc3)c2)cc1 [Compound 17b, N-(4-Fluorobenzyl)-3-phenoxy-N-((5-phenylthiazol-2-yl)methyl)aniline] |
| 17.1 ± 0.44 | – | – | Cc1cc(CN(Cc2ccc(F)cc2)c2cccc(Oc3ccccc3)c2)nn1-c1ccccc1 [Compound 17c, N-(4-Fluorobenzyl)-N-((5-methyl-1-phenyl-1H-pyrazol-3-yl)methyl)-3-phenoxyaniline] |
| 9.03 ± 0.21 | – | – | Fc1ccc(CN(Cc2nc(-c3ccccc3)cs2)c2cccc(Oc3ccccc3)c2)cc1 [Compound 17d, N-(4-Fluorobenzyl)-3-phenoxy-N-((4-phenylthiazol-2-yl)methyl)aniline] |
| 26.9 ± 0.35 | 97.3 to 98.2 | – | Fc1ccc(CN(Cc2nnc(-c3ccccc3)o2)c2cccc(Oc3ccccc3)c2)cc1 [Compound 17e, N-(4-Fluorobenzyl)-3-phenoxy-N-((5-phenyl-1,3,4-oxadiazol-2-yl)methyl)aniline] |
| 13.7 ± 0.63 | – | – | Fc1ccc(CN(Cc2nc3ccccc3[nH]2)c2cccc(Oc3ccccc3)c2)cc1 [Compound 17f, N-((1H-Benzo[d]imidazol-2-yl)methyl)-N-(4-fluorobenzyl)-3-phenoxyaniline] |
| 15.2 ± 0.52 | – | – | Fc1ccc(CN(Cc2nc3ccccc3o2)c2cccc(Oc3ccccc3)c2)cc1 [Compound 17g, N-(Benzo[d]oxazol-2-ylmethyl)-N-(4-fluorobenzyl)-3-phenoxyaniline] |
| 13.96 ± 0.11 | – | – | COc1cccc(N(Cc2ccc(F)cc2)Cc2nc(-c3ccccc3)cs2)c1 [Compound 21, N-(4-Fluorobenzyl)-3-methoxy-N-((4-phenylthiazol-2-yl)methyl)aniline] |
| 3.58 ± 0.03 | – | – | COc1ccc(N(Cc2ccc(F)cc2)Cc2nc(-c3ccccc3)cs2)cc1OC [Compound 22, N-(4-Fluorobenzyl)-3,4-dimethoxy-N-((4-phenylthiazol-2-yl)methyl)aniline] |
| 31.69 ± 0.25 | – | – | O=[N+]([O-])c1ccc(-c2csc(CN(Cc3ccc(F)cc3)c3cccc(OC(F)(F)F)c3)n2)cc1 [Compound 23, N-(4-Fluorobenzyl)-N-((4-(4-nitrophenyl)thiazol-2-yl)methyl)-3-(trifluoromethoxy)aniline] |
| 13.8 ± 0.14 | 107 to 108.4 | – | O=[N+]([O-])c1ccc(-c2csc(CN(Cc3ccc(F)cc3)c3cccc(C(F)(F)F)c3)n2)cc1 [Compound 24, N-(4-Fluorobenzyl)-N-((4-(4-nitrophenyl)thiazol-2-yl)methyl)-3-(trifluoromethyl)aniline] |
| 9.55 ± 0.08 | 164.5 to 166.2 | – | O=[N+]([O-])c1ccc(-c2csc(CN(Cc3ccc(F)cc3)c3ccc(-c4ccccc4)cc3)n2)cc1 [Compound 25, N-(4-Fluorobenzyl)-N-((4-(4-nitrophenyl)thiazol-2-yl)methyl)-[1,1′-biphenyl]-4-amine] |
| 8.98 ± 0.05 | 149.5 to 150.8 | – | O=[N+]([O-])c1ccc(-c2csc(CN(Cc3ccc(F)cc3)c3cccc(-c4ccccc4)c3)n2)cc1 [Compound 26, N-(4-Fluorobenzyl)-N-((4-(4-nitrophenyl)thiazol-2-yl)methyl)-[1,1′-biphenyl]-3-amine] |
| 1.02 ± 0.01 | – | – | O=[N+]([O-])c1ccc(-c2csc(CN(Cc3ccc(F)cc3)c3ccccc3-c3ccccc3)n2)cc1 [Compound 27, N-(4-Fluorobenzyl)-N-((4-(4-nitrophenyl)thiazol-2-yl)methyl)-[1,1′-biphenyl]-2-amine] |
| 7.77 ± 0.13 | 143.9 to 148.8 | – | O=[N+]([O-])c1ccc(-c2csc(CN(Cc3ccc(F)cc3)c3cccc(-c4cccs4)c3)n2)cc1 [Compound 28, N-(4-Fluorobenzyl)-N-((4-(4-nitrophenyl)thiazol-2-yl)methyl)-3-(thiophen-2-yl)aniline] |
| 24.56 ± 0.22 | – | – | Cn1nccc1-c1cccc(N(Cc2ccc(F)cc2)Cc2nc(-c3ccc([N+](=O)[O-])cc3)cs2)c1 [Compound 29, N-(4-Fluorobenzyl)-3-(1-methyl-1H-pyrazol-5-yl)-N-((4-(4-nitrophenyl)thiazol-2-yl)methyl)aniline] |

| IC50 (recombinant CETP) [µM] | melting point [°C] | decrease of activity on replacing the nitro group at the 4-position of ring B (recombinant CETP; compared with the 4-nitro compound (30)) [fold] | SMILES |
| --- | --- | --- | --- |
| 2.46 ± 0.06 | – | – | COc1ccc(N(Cc2ccc(F)cc2)Cc2nc(-c3ccc(F)cc3)cs2)cc1OC [Compound 31, N-(4-Fluorobenzyl)-N-((4-(4-fluorophenyl)thiazol-2-yl)methyl)-3,4-dimethoxyaniline] |
| 1.5 ± 0.03 | 105.4 to 106.6 | – | COc1ccc(N(Cc2ccc(F)cc2)Cc2nc(-c3ccc(C#N)cc3)cs2)cc1OC [Compound 33, 4-(2-(((3,4-Dimethoxyphenyl)(4-fluorobenzyl)amino)methyl)thiazol-4-yl)benzonitrile] |
| 1.38 ± 0.07 | 120.5 to 121.6 | – | COc1ccc(N(Cc2ccc(F)cc2)Cc2nc(-c3cccc([N+](=O)[O-])c3)cs2)cc1OC [Compound 34, N-(4-Fluorobenzyl)-3,4-dimethoxy-N-((4-(3-nitrophenyl)thiazol-2-yl)methyl)aniline] |
| 6.36 ± 0.12 | – | – | COc1ccc(N(Cc2ccc(F)cc2)Cc2nc(-c3ccccc3[N+](=O)[O-])cs2)cc1OC [Compound 35, N-(4-Fluorobenzyl)-3,4-dimethoxy-N-((4-(2-nitrophenyl)thiazol-2-yl)methyl)aniline] |
| 8.96 ± 0.15 | – | – | COc1ccc(N(Cc2ccc(F)cc2)Cc2nc(-c3ccc(Br)cc3)cs2)cc1OC [Compound 36, N-((4-(4-Bromophenyl)thiazol-2-yl)methyl)-N-(4-fluorobenzyl)-3,4-dimethoxyaniline] |
| 4.02 ± 0.05 | 126.1 to 130.3 | – | COc1ccc(N(Cc2ccc(F)cc2)Cc2nc(-c3ccc(-c4cnn(C)c4)cc3)cs2)cc1OC [Compound 37, N-(4-Fluorobenzyl)-3,4-dimethoxy-N-((4-(4-(1-methyl-1H-pyrazol-4-yl)phenyl)thiazol-2-yl)methyl)aniline] |
| 7.57 ± 0.1 | 69 to 69.8 | – | COc1ccc(N(Cc2ccc(F)cc2)Cc2nc(-c3ccc(-c4c(C)noc4C)cc3)cs2)cc1OC [Compound 38, N-((4-(4-(3,5-Dimethylisoxazol-4-yl)phenyl)thiazol-2-yl)methyl)-N-(4-fluorobenzyl)-3,4-dimethoxyaniline] |
| 6.38 ± 0.09 | 102.4 to 103.3 | – | COc1ccc(N(Cc2ccc(F)cc2)Cc2nc(-c3ccc(-c4ccnn4C)cc3)cs2)cc1OC [Compound 39, N-(4-Fluorobenzyl)-3,4-dimethoxy-N-((4-(4-(1-methyl-1H-pyrazol-5-yl)phenyl)thiazol-2-yl)methyl)aniline] |
| 6.03 ± 0.04 | 115.8 to 119 | – | COc1ccc(N(Cc2ccc(F)cc2)Cc2nc(-c3ccc(-c4cccs4)cc3)cs2)cc1OC [Compound 40, N-(4-Fluorobenzyl)-3,4-dimethoxy-N-((4-(4-(thiophen-2-yl)phenyl)thiazol-2-yl)methyl)aniline] |
| 3.51 ± 0.06 | – | – | COc1ccc(N(Cc2ccc(F)cc2)Cc2nc(-c3ccc4ccccc4c3)cs2)cc1OC [Compound 41, N-(4-Fluorobenzyl)-3,4-dimethoxy-N-((4-(naphthalen-2-yl)thiazol-2-yl)methyl)aniline] |
| 14 ± 0.21 | 105.3 to 107 | – | COc1ccc(N(Cc2ccc(F)cc2)Cc2nc(-c3ccc(C)cc3)cs2)cc1OC [Compound 42, N-(4-Fluorobenzyl)-3,4-dimethoxy-N-((4-(p-tolyl)thiazol-2-yl)methyl)aniline] |
| 11 ± 0.31 | 76.3 to 79 | – | COc1ccc(-c2csc(CN(Cc3ccc(F)cc3)c3ccc(OC)c(OC)c3)n2)cc1 [Compound 43, N-(4-Fluorobenzyl)-3,4-dimethoxy-N-((4-(4-methoxyphenyl)thiazol-2-yl)methyl)aniline] |
| 16.7 ± 0.23 | 144.7 to 146.2 | – | COc1ccc(N(Cc2ccc(F)cc2)Cc2nc(-c3ccc(N)cc3)cs2)cc1OC [Compound 44, N-((4-(4-Aminophenyl)thiazol-2-yl)methyl)-N-(4-fluorobenzyl)-3,4-dimethoxyaniline] |
| 15.3 ± 0.17 | 143.6 to 145.8 | – | COc1ccc(N(Cc2ccc(F)cc2)Cc2nc(-c3ccc(NC(=O)C(F)(F)F)cc3)cs2)cc1OC [Compound 45, N-(4-(2-(((3,4-Dimethoxyphenyl)(4-fluorobenzyl)amino)methyl)thiazol-4-yl)phenyl)-2,2,2-trifluoroacetamide] |
| > 50 | 134.6 to 137 | – | COc1ccc(N(Cc2ccc(F)cc2)Cc2nc(-c3ccc(NC(C)=O)cc3)cs2)cc1OC [Compound 46, N-(4-(2-(((3,4-Dimethoxyphenyl)(4-fluorobenzyl)amino)methyl)thiazol-4-yl)phenyl)acetamide] |
| 8.4 ± 0.04 | – | ~10 | CCOC(=O)CCCOc1ccc(-c2csc(CN(Cc3ccc(F)cc3)c3ccc(OC)c(OC)c3)n2)cc1 [Compound 48, Ethyl-4-(4-(2-(((3,4-dimethoxyphenyl)(4-fluorobenzyl)amino)methyl)thiazol-4-yl)phenoxy)butanoate] |
